Measured values as given in patent US20020094522A1, “Means and methods for monitoring non-nucleoside reverse transcriptase inhibitor antiretroviral therapy and guiding therapeutic decisions in the treatment of HIV/AIDS” (priority 2000, published 2002).

Experiments:
[1] = tested on: Y188L-RTV (HIV reverse transcriptase Y188L); test: Phenotypic susceptibility assay, Y188L-RTV; type: cell-based, HIV-1; conditions: site directed mutant
Text: (§1) The resistance test vectors containing a functional luciferase gene cassette were constructed and host cells were transfected with the resistance test vector DNA. The resistant test vectors contained patient-derived reverse transcriptase and protease sequences that were either susceptible or resistant to the antiretroviral agents, such as nucleoside reverse transcriptase inhibitors, non-nucleoside reverse transcriptase inhibitors and protease inhibitors. The resistance test vector viral particles produced by transfecting the resistance test vector DNA into host cells, either in the presence or absence of protease inhibitors, were used to infect target host cells grown either in the absence of NRTI or NNRTI or in the presence of increasing concentrations of the drug. The amount of luciferase activity produced in infected target host cells in the presence of drug was compared to the amount of luciferase produced in infected target host cells in the absence of drug. Drug resistance was measured as the amount of drug required to inhibit by 50% the luciferase activity detected in the absence of drug (inhibitory concentration 50%, IC50). The IC50 values were determined by plotting percent drug inhibition vs. log10 drug concentration.
(§2) Host cells were seeded in 10-cm-diameter dishes and were transfected several days after plating with resistance test vector plasmid DNA and the envelope expression vector. Transfections were performed using a calcium-phosphate precipitation procedure. The cell culture media containing the DNA precipitate was replaced with fresh medium, from one to 24 hours, after transfection. Cell culture media containing resistance test vector viral particles was harvested one to four days after transfection and was passed through a […] filter before being stored at −80° C. HIV capsid protein (p24) levels in the harvested cell culture media were determined by an EIA method as described by the manufacturer (SIAC; Frederick, Md.). […] The inhibitory effect of the drug was determined using the following equation: […]

[2] = tested on: A98G-G190S-RTV; test: Phenotypic susceptibility assay, A98G-G190S-RTV; type: cell-based, HIV-1; conditions: values <1 = increased susceptibility
Text: as §1, §2

[3] = tested on: RTV-1060 (patient sample 98-1060); test: Phenotypic susceptibility assay, RTV-1060; type: cell-based, HIV-1; conditions: RTV-1060, patient-derived pool
Procedure: (§3) Transfections were performed using a calcium-phosphate precipitation procedure. […] Cell lysates were assayed for luciferase activity (FIG. 3).
(§4) The drug inhibition curves are shown in (FIG. 3).
This patient had been previously treated with d4T […] , indinavir (a PRI and efavirenz (an NNRTI). A second resistance test vector was constructed as described in Example 1 from a patient sample designated 98-1060. This patient had been previously treated with d4T […]. indinavir (a PRI) and efavirnez (an NNRTI). Isolation of viral RNA and RT/PCR was used to generate a patient derived segment that comprised viral sequences coding for all of PR and aa 1-313 of RT. The PDS was inserted into an indicator gene viral vector to generate resistance test vectors designated RTV-644 and RTV-1060. RTV-644 and RTV-1060 were then tested in a phenotypic assay to determine accurately and quantitatively the level of susceptibility to a panel of anti-retroviral drugs. […] An IC50 was determined for the resistance test vector pool for each drug tested. The pattern of susceptiblity to all of the drugs tested was examined and compared to known patterns of susceptibility.

[4] = tested on: K101E-G190A-RTV
Text: as §1
as §2, with “Md.). Before infection, target cells (293 and 293/T) were plated in cell culture media. Control infections were performed using cell culture media from mock transfections (no DNA) or transfections containing the resistance test vector plasmid DNA without the envelope expression plasmid. One to three or more days after infection the media was removed and cell lysis buffer (Promega) was added to each well.” for “Md.).”
(§5) where RLUluc [drug] is the relative light unit of luciferase activity in infected cells in the presence of drug and RLUluc is the Relative Light Unit of luciferase activity in infected cells in the absence of drug. IC50 values were obtained from the sigmoidal curves that were generated from the data by plotting the percent inhibition of luciferase activity vs. the log10 drug concentration.
(§6) The K101E, K103N and G190A mutations were introduced alone and in combination into resistance test vectors using the mega-primer method for site-directed mutagenesis (Sakar and Sommar, Ibid.).

[5] = tested on: K103N-G190A-RTV
Text: as §1
as §2, with “Md.). Before infection, target cells (293 and 293/T) were plated in cell culture media. Control infections were performed using cell culture media from mock transfections (no DNA) or transfections containing the resistance test vector plasmid DNA without the envelope expression plasmid. One to three or more days after infection the media was removed and cell lysis buffer (Promega) was added to each well.” for “Md.).”
as §5, §6

[6] = tested on: RTV-1033 (patient sample 98-1033); test: Phenotypic susceptibility assay, RTV-1033; type: cell-based, HIV-1; conditions: RTV-1033, patient-derived pool
Procedure: as §3, §4
A resistance test vector was constructed as described in Example 1 from a patient sample designated 98-1033. […] Isolation of viral RNA and RT/PCR was used to generate a patient derived segment that comprised viral sequences coding for all of PR and aa 1-313 of RT. The PDS was inserted into an indicator gene viral vector to generate resistance test vectors designated RTV-1033 and RTV-757. RTV-1033 and RTV-757 were then tested in a phenotypic assay to determine accurately and quantitatively the level of susceptibility to a panel of anti-retroviral drugs. […] An IC50 was determined for the resistance test vector pool for each drug tested. The pattern of susceptibility to all of the drugs tested was examined and compared to known patterns of susceptibility.

[7] = tested on: F227L-RTV (HIV reverse transcriptase F227L); test: Phenotypic susceptibility assay, F227L-RTV; type: cell-based, HIV-1; conditions: values <1 = increased susceptibility
Text: as §1, §2

[8] = tested on: L100I-RTV (HIV reverse transcriptase L100I); test: Phenotypic susceptibility assay, L100I-RTV; type: cell-based, HIV-1; conditions: site directed mutant
Text: as §1
Host cells were seeded in 10-cm-diameter dishes and were transfected several days after plating with resistance test vector plasmid DNA and the envelope expression vector. Transfections were performed using a calcium-phosphate precipitation procedure. […] HIV capsid protein (p24) levels in the harvested cell culture media were determined by an EIA method as described by the manufacturer (SIAC; Frederick, Md.). […] The inhibitory effect of the drug was determined using the following equation: […]
The mutations Y188L, L100I and K103N were introduced alone and in combinationn into resistance test vectors using the mega-primer method for site-directed mutagenesis (Sakar and Sommar, Ibid.). […] We determined the pattern of phenotypic susceptibility to the NNRTIs, delavirdine, nevlrapine and efavirenz, in all 6 vectors.

SMILES	fold loss of susceptibility compared to wild type control RTV [1]	fold change in susceptibility compared to wild type control RTV [2]	fold decrease in susceptibility (IC50) [3]	fold loss of susceptibility compared to wild type control RTV [4]	fold loss of susceptibility compared to wild type control RTV [5]	fold decrease in susceptibility (IC50) [6]	fold change in susceptibility compared to wild type control RTV [7]	fold loss of susceptibility compared to wild type control RTV [8]
CC(C)Nc1cccnc1N1CCN(C(=O)c2cc3cc(NS(C)(=O)=O)ccc3[nH]2)CC1 [delavirdine]	9 fold	0.8 fold	1.5 fold	2 fold	40 fold	30 fold	0.03 fold	30 fold
O=C1Nc2ccc(Cl)cc2[C@@](C#CC2CC2)(C(F)(F)F)O1 [efavirenz]	110 fold	greater than 250 fold	900 fold	120 fold	215 fold	200 fold	0.48 fold	10 fold
Cc1ccnc2c1NC(=O)c1cccnc1N2C1CC1 [nevirapine]	greater than 800 fold	greater than 800 fold	greater than 800 fold	greater than 800 fold	greater than 800 fold	greater than 800 fold	3 fold	3 fold
